Entries after “also recorded” stand apart in the source; their conditions may differ. Where a name gives a salt, the structure may show the parent alone. Read-outs that look alike come from different tables or passages of the source.
Legend:
[1] = test system: HEK293, SH-SY5Y, SK-N-SH, or N2a; conditions: cited from earlier work
[2] = test system: LUHMES and dLUHMES cells
[3] = test system: Caspase 3/7 activity in LUHMES and dLUHMES cells; experiment: Caspase-Glo 3/7 luminescence assay, 24 h; assay type: cell-based, human
[4] = test system: NSC and dNSC cells; conditions: 24 h exposure, [ATP], 0.78 to 100 µM
[5] = test system: Caspase 3/7 activity in SH-SY5Y and dSH-SY5Y cells; experiment: Caspase-Glo 3/7 luminescence assay, 24 h; assay type: cell-based
[6] = test system: LUHMES and dLUHMES cells; conditions: 6 h
[7] = test system: Caspase 3/7 activity in NSC and dNSC cells; assay type: cell-based, human; conditions: 24 h, threshold […] above control
[8] = test system: SH-SY5Y and dSH-SY5Y cells; experiment: qPCR of apoptosis-pathway genes after 6 h toxicant treatment; assay type: cell-based, human; conditions: for BAG3 expression: both SH-SY5Y and dSH-SY5Y
[9] = test system: SH-SY5Y, LUHMES, NSC, dSH-SY5Y, dLUHMES, dNSC
[10] = test system: SH-SY5Y and dSH-SY5Y cells
[11] = dLUHMES, 24 h, threshold […] above control
[12] = 24 h exposure, 0.78 to 100 µM, vs SH-SY5Y/dSH-SY5Y and NSC/dNSC
[13] = 24 h exposure, [ATP], 0.78 to 100 µM
[14] = SH-SY5Y and dSH-SY5Y (either cell type), MAP 12.5 µM, DTCM 10 µM, MALG 1.56 µM, MHG 1.56 µM, RSR 10 µM
[15] = SH-SY5Y and dSH-SY5Y (either cell type), MAP 12.5 µM, MALG 1.56 µM, MHG 1.56 µM, RSR 10 µM
[16] = MAP 12.5 µM, DTCM 10 µM, MALG 1.56 µM, MHG 1.56 µM, RSR 10 µM

## Sodium dichromate [CR2]
[1]
  In vitro neural selectivity: neural-derived cell lines 10-fold more sensitive (10-fold lower IC50) than the median of the other 9 cell lines: SH-SY5Y ([Huang et al., 2008], [Xia et al., 2008])

## COc1cc2c(c(OC)c1OC)-c1ccc(OC)c(=O)cc1[C@@H](NC(C)=O)CC2 [CLCH, Colchicine]
[1]
  In vitro neural selectivity: neural-derived cell lines 10-fold more sensitive (10-fold lower IC50) than the median of the other 9 cell lines: HEK293, SH-SY5Y, SK-N- SH, N2a ([Huang et al., 2008], [Xia et al., 2008])
[2]
  cytotoxic sensitivity ([ATP] IC50) of LUHMES and/or dLUHMES relative to the other cell lines: more sensitive than the other cell lines

## O=c1c(-c2ccc(O)cc2)coc2cc(O)cc(O)c12 [GEN, Genistein]
[3]; [11]
  increase of Caspase 3/7 activity in dLUHMES: but not dLUHMES

## Tunicamycin [TUNC]
[2]; [12]
  cytotoxic sensitivity ([ATP] IC50) of LUHMES and/or dLUHMES relative to the other cell lines: more sensitive than the other cell lines

## Cc1c(O)cccc1C(=O)N[C@@H](CSc1ccccc1)[C@H](O)CN1C[C@H]2CCCC[C@H]2C[C@H]1C(=O)NC(C)(C)C [NLF, Nelfinavir]
[1]
  In vitro neural selectivity: neural-derived cell lines 10-fold more sensitive (10-fold lower IC50) than the median of the other 9 cell lines: SH-SY5Y ([Huang et al., 2008], [Xia et al., 2008])
[2]
  cytotoxic sensitivity ([ATP] IC50) of LUHMES and/or dLUHMES relative to the other cell lines: more sensitive than the other cell lines

## CCCCCCCCn1sccc1=O [OTZ, 2-octyl-4-isothiazolin-3-one]
[1]
  In vitro neural selectivity: neural-derived cell lines 10-fold more sensitive (10-fold lower IC50) than the median of the other 9 cell lines: SH-SY5Y ([Huang et al., 2008], [Xia et al., 2008])
[2]
  cytotoxic sensitivity ([ATP] IC50) of LUHMES and/or dLUHMES relative to the other cell lines: more sensitive than the other cell lines
[4]
  relative cytotoxic sensitivity of NSC versus dNSC: NSC more sensitive than dNSC

## O=C(O)CCCc1ccc(N(CCCl)CCCl)cc1 [CLM, Chlorambucil]
[1]
  In vitro neural selectivity: neural-derived cell lines 10-fold more sensitive (10-fold lower IC50) than the median of the other 9 cell lines: selective toxicity to SH-SY5Y cells; also recorded: SH-SY5Y, ([Huang et al., 2008], [Xia et al., 2008])
[3]; [11]
  increase of Caspase 3/7 activity in dLUHMES: but not dLUHMES
[2]
  relative cytotoxic sensitivity of LUHMES versus dLUHMES cells: LUHMES cells were more sensitive than dLUHMES cells
[2]; [12]
  cytotoxic sensitivity ([ATP] IC50) of LUHMES and/or dLUHMES relative to the other cell lines: more sensitive than the other cell lines
[5]
  peak Caspase 3/7 activities, ranking among compounds: highest activities

## CC[C@]1(O)C[C@H]2CN(CCc3c([nH]c4ccccc34)[C@@](C(=O)OC)(c3cc4c(cc3OC)N(C=O)[C@H]3[C@@](O)(C(=O)OC)[C@H](OC(C)=O)[C@]5(CC)C=CCN6CC[C@]43[C@@H]65)C2)C1 [VIN, Vincristine sulfate]
[2]
  cytotoxic sensitivity ([ATP] IC50) of LUHMES and/or dLUHMES relative to the other cell lines: more sensitive than the other cell lines

## Nc1ccn([C@@H]2O[C@H](CO)[C@@H](O)[C@@H]2O)c(=O)n1 [ARAC, Cytosine arabinoside]
[3]; [11]
  increase of Caspase 3/7 activity in dLUHMES: but not dLUHMES
[2]
  relative cytotoxic sensitivity of LUHMES versus dLUHMES cells: LUHMES cells were more sensitive than dLUHMES cells
[2]; [12]
  cytotoxic sensitivity ([ATP] IC50) of LUHMES and/or dLUHMES relative to the other cell lines: more sensitive than the other cell lines
[5]
  peak Caspase 3/7 activities, ranking among compounds: highest activities

## Cc1ccc2c(c1[N+](=O)[O-])C(=O)c1ccccc1C2=O [MNA, 2-Methyl-1-nitroanthraquinone]
[1]; qHTS cytotoxicity, ref Huang et al., 2008, Xia et al., 2008
  In vitro neural selectivity: neural-derived cell lines 10-fold more sensitive (10-fold lower IC50) than the median of the other 9 cell lines: HEK293 ([Huang et al., 2008], [Xia et al., 2008])
[3]; [11]
  increase of Caspase 3/7 activity in dLUHMES: but not dLUHMES
[2]
  cytotoxic sensitivity ([ATP] IC50) of LUHMES and/or dLUHMES relative to the other cell lines: more sensitive than the other cell lines

## NCCc1cc(O)c(O)cc1O [6HD, 6-hydroxydopamine]
[2]; [12]
  cytotoxic sensitivity ([ATP] IC50) of LUHMES and/or dLUHMES relative to the other cell lines: more sensitive than the other cell lines
[2]; [13]
  relative cytotoxic sensitivity of LUHMES versus dLUHMES cells: dLUHMES cells were markedly more sensitive than LUHMES cells
[4]
  relative cytotoxic sensitivity of NSC versus dNSC: NSC more sensitive than dNSC
[5]
  peak Caspase 3/7 activities, ranking among compounds: highest activities
[6]; LUHMES, 6HD 1 µM
  expression of a series of apoptosis-related genes: not observed
[6]; dLUHMES, 6HD 1 µM
  expression of BCL2A1 and IL10: increased expression
  expression of a series of apoptosis-related genes: increased expression
[7]
  increase of Caspase 3/7 activity in dNSC: but not dNSC

## Aflatoxin B1
[3]
  increase of Caspase 3/7 activity in dLUHMES: but not dLUHMES
[2]
  cytotoxic sensitivity ([ATP] IC50) of LUHMES and/or dLUHMES relative to the other cell lines: more sensitive than the other cell lines
  relative cytotoxic sensitivity of LUHMES versus dLUHMES cells: LUHMES cells were more sensitive than dLUHMES cells

## COc1cccc2c1C(=O)c1c(O)c3c(c(O)c1C2=O)C[C@@](O)(C(=O)CO)C[C@@H]3O[C@H]1C[C@H](N)[C@H](O)[C@H](C)O1 [DOX, Doxorubicin]
[1]
  In vitro neural selectivity: neural-derived cell lines 10-fold more sensitive (10-fold lower IC50) than the median of the other 9 cell lines: HEK293, SH-SY5Y, SK-N- SH ([Huang et al., 2008], [Xia et al., 2008])
[5]
  peak Caspase 3/7 activities, ranking among compounds: highest activities

## C[C@H]1O[C@@H](O[C@H]2[C@@H](O)C[C@H](O[C@H]3[C@@H](O)C[C@H](O[C@H]4CC[C@@]5(C)[C@H](CC[C@@H]6[C@@H]5C[C@@H](O)[C@]5(C)[C@@H](C7=CC(=O)OC7)CC[C@]65O)C4)O[C@@H]3C)O[C@@H]2C)C[C@H](O)[C@@H]1O [DGX, Digoxin]
[2]
  cytotoxic sensitivity ([ATP] IC50) of LUHMES and/or dLUHMES relative to the other cell lines: more sensitive than the other cell lines

## [CH3][Sn]([CH3])([CH3])[Cl] [TMT, Trimethyltin chloride]
[2]; [12]
  cytotoxic sensitivity ([ATP] IC50) of LUHMES and/or dLUHMES relative to the other cell lines: more sensitive than the other cell lines
[2]; [13]
  relative cytotoxic sensitivity of LUHMES versus dLUHMES cells: dLUHMES cells were markedly more sensitive than LUHMES cells

## COc1cccc2c1C(=O)c1c(O)c3c(c(O)c1C2=O)C[C@@](O)(C(C)=O)C[C@@H]3O[C@H]1C[C@H](N)[C@H](O)[C@H](C)O1 [DAUN, Daunorubicin]
[1]
  In vitro neural selectivity: neural-derived cell lines 10-fold more sensitive (10-fold lower IC50) than the median of the other 9 cell lines: HEK293, SH-SY5Y, SK-N- SH, N2a ([Huang et al., 2008], [Xia et al., 2008])
[5]
  peak Caspase 3/7 activities, ranking among compounds: highest activities

## CN(C)c1ccc(C(=C2C=CC(=[N+](C)C)C=C2)c2ccccc2)cc1.CN(C)c1ccc(C(=C2C=CC(=[N+](C)C)C=C2)c2ccccc2)cc1.O=C(O)C(=O)O.O=C([O-])C(=O)O.O=C([O-])C(=O)O [MALG, Malachite green oxalate]
[8]; [14]
  BIRC5 gene expression: down-regulation
[8]; [15]
  BIRC3 gene expression: down-regulation
[8]; [16]
  BAG3 expression: increased expression
[5]
  peak Caspase 3/7 activities, ranking among compounds: highest activities
[9]
  cytotoxic sensitivity of LUHMES, dLUHMES, NSC and dNSC compared with each other: comparable sensitivity

## [CH3][Hg+] [MHG, Methyl mercury (II)]
[8]; [14]
  BIRC5 gene expression: down-regulation
[8]; [15]
  BIRC3 gene expression: down-regulation
[8]; [16]
  BAG3 expression: increased expression

## O=C1C2CC=CCC2C(=O)N1SC(Cl)(Cl)Cl (stereo not shown) [CAP, Captan]
[1]
  In vitro neural selectivity: neural-derived cell lines 10-fold more sensitive (10-fold lower IC50) than the median of the other 9 cell lines: SH-SY5Y ([Huang et al., 2008], [Xia et al., 2008])
[2]; [12]
  cytotoxic sensitivity ([ATP] IC50) of LUHMES and/or dLUHMES relative to the other cell lines: more sensitive than the other cell lines
[2]; [13]
  relative cytotoxic sensitivity of LUHMES versus dLUHMES cells: dLUHMES cells were markedly more sensitive than LUHMES cells
[10]; [13]
  cytotoxic sensitivity of dSH-SY5Y cells relative to SH-SY5Y cells: slightly more sensitive

## c1cc(OCC2CO2)cc(OCC2CO2)c1 (stereo not shown) [RSR, Resorcinol diglycidyl ether]
[1]
  In vitro neural selectivity: neural-derived cell lines 10-fold more sensitive (10-fold lower IC50) than the median of the other 9 cell lines: SH-SY5Y ([Huang et al., 2008], [Xia et al., 2008])
[2]; [12]
  cytotoxic sensitivity ([ATP] IC50) of LUHMES and/or dLUHMES relative to the other cell lines: more sensitive than the other cell lines
[4]
  relative cytotoxic sensitivity of NSC versus dNSC: the converse was true
[8]; [14]
  BIRC5 gene expression: did not respond detectably
[8]; [15]
  BIRC3 gene expression: did not respond detectably
[8]; [16]
  BAG3 expression: weakly
[5]
  peak Caspase 3/7 activities, ranking among compounds: highest activities
[6]; LUHMES, 1.56 µM RSR, samples lost
  cytotoxicity seen in samples treated for qPCR: excessive cytotoxicity

## C=C(C)[C@H]1Cc2c(ccc3c2O[C@@H]2COc4cc(OC)c(OC)cc4[C@@H]2C3=O)O1 [ROTE, Rotenone]
[2]
  relative cytotoxic sensitivity of LUHMES versus dLUHMES cells: LUHMES cells were more sensitive than dLUHMES cells
[2]; [12]
  cytotoxic sensitivity ([ATP] IC50) of LUHMES and/or dLUHMES relative to the other cell lines: more sensitive than the other cell lines
[10]
  cytotoxic sensitivity of dSH-SY5Y cells relative to SH-SY5Y cells: more sensitive

## Ziram
[1]
  In vitro neural selectivity: neural-derived cell lines 10-fold more sensitive (10-fold lower IC50) than the median of the other 9 cell lines: SH-SY5Y ([Huang et al., 2008], [Xia et al., 2008])

## N#CSCSC#N [DTCM, Dithiocyanatomethan]
[1]
  In vitro neural selectivity: neural-derived cell lines 10-fold more sensitive (10-fold lower IC50) than the median of the other 9 cell lines: SH-SY5Y ([Huang et al., 2008], [Xia et al., 2008])
[3]; [11]
  increase of Caspase 3/7 activity in dLUHMES: but not dLUHMES
[2]; [12]
  cytotoxic sensitivity ([ATP] IC50) of LUHMES and/or dLUHMES relative to the other cell lines: more sensitive than the other cell lines
[2]; [13]
  relative cytotoxic sensitivity of LUHMES versus dLUHMES cells: dLUHMES cells were markedly more sensitive than LUHMES cells
[8]; [14]
  BIRC5 gene expression: down-regulation
[8]; SH-SY5Y, DTCM 10 µM
  BIRC3 gene expression: down-regulation
[8]; SHSY5Y, DTCM 10 µM
  FAS mRNA: down-regulated
[8]; [16]
  BAG3 expression: increased expression
[8]; dSH-SY5Y, DTCM 10 µM
  BIRC3 gene expression: did not respond detectably
  FASL mRNA: unchanged
[10]; [13]
  cytotoxic sensitivity of dSH-SY5Y cells relative to SH-SY5Y cells: slightly more sensitive

Reference: article PMC5094908 (Journal of applied toxicology : JAT, 2016)
